Assay results from publication PMC6934184, “Selective DNA-PKcs inhibition extends the therapeutic index of localized radiotherapy and chemotherapy” (The Journal of Clinical Investigation, 2019).

Target: T1, KIT D816V (Homo sapiens, UniProt P10721, D816V)
T1 construct: purchased Thermo Fisher Scientific (Life Technologies) SelectScreen
Test: SelectScreen LanthaScreen
Format: binding
Settings: read-out: % displacement
Method in brief: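 NU5455 was profiled across the SelectScreen Broad panel of kinase activity and binding assays. Z'LYTE reactions such as CSF1R ran at apparent Km ATP, while the Adapta CAMK1 assay used ATP listed as 10. Values are given as percent.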

T1 sequence (P10721 26-976 D816V): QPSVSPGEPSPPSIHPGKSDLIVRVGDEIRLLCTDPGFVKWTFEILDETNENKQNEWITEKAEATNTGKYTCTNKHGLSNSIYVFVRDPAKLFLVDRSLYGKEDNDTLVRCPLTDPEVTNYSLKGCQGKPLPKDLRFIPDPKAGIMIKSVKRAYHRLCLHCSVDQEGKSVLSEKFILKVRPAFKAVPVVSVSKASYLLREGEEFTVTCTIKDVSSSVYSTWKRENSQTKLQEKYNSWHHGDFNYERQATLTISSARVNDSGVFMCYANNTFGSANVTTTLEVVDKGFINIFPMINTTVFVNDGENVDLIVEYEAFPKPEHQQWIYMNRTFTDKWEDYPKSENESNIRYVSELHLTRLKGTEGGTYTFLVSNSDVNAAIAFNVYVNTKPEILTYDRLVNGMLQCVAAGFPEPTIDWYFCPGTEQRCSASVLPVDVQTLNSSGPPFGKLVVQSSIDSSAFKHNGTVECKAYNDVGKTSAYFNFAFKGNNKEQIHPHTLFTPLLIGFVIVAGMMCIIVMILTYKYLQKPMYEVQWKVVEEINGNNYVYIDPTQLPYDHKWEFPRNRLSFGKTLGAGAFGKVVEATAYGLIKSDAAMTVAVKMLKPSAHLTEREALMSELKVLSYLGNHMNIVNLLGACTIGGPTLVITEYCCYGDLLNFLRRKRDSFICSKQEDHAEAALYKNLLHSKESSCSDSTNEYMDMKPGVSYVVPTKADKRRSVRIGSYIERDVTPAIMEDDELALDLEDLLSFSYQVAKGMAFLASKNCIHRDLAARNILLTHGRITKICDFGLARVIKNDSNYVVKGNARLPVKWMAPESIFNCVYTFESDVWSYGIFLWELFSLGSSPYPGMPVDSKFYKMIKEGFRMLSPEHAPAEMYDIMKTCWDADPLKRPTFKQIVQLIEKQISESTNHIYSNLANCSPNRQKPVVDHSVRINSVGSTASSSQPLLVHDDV

Q: With `CN(C(=O)CN1CCOCC1)c1ccc2sc3c(-c4cccc5c(=O)cc(N6CC7CCC(C6)O7)oc45)cccc3c2c1` [NU5455] as the compound, how does the inhibition at 1 µM read?
A: The inhibition at 1 µM was 0.9%.
